Data as given in patent US7754718B2 (priority 2004, dated 2010).

Key:
[1] = Cell cytotoxicity assay on CEM cells; type: cell-based; conditions: human, read-out: Cytotoxity (ID50, μM) CEM
Method in brief: (§1)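 MT-2 and CEM cytotoxicity determined per previously reported procedures. HepG2 cells seeded at 10^4 cells/ml in MEME + 10% FBS, compound added on day 2 for 3 further days at 37° C. Viable layer stained with methylene blue, solubilized in 1% sarcosyl, A595 read.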

HCV = experiment: Anti-HCV activity in Huh-Luc/neo cell line, luciferase activity after 3-day treatment; type: cell-based, Hepatitis C virus; conditions: Hepatitis C virus, 72 h; at 3 μM, Huh-Luc/neo cells, 3 days; read-out: HCV percent of inhibition
[2] = Cell cytotoxicity assay on MT-2 cells; type: cell-based; conditions: human, read-out: Cytotoxity (ID50, μM) MT-2
Method in brief: as §1

CMV = experiment: In vitro antiviral assay for CMV; type: cell-based, cytomegalovirus; conditions: Human betaherpesvirus 5, read-out: Antiviral Activities (EC50, μM) CMV
Description: The antiviral assays for HBV, (Doong et al., 1991, Proc. Natl. Acad. Sci. U.S.A. 88:8495-8499) HSV-1, (Bastow et al., 1983, Antimicrob. Agents Chemother. 23: 914-917) HSV-2, (Bastow et al., 1983, Antimicrob. Agents Chemother. 23:914-917) EBV, (Yao et al., 1993, Antimicrob. Agents Chemother. 37:1420-1425), CMV (Andreoni et al., 2002, J. Med. Virol. 67:33-40) and HIV (Mellors et al., 1992, Mol. Pharmacol. 41: 446-451) were performed according to the previously reported procedures. Anti-HCV activities were tested in Huh-Luc/neo cell line. Cells were seeded into 48-well plates and grown until confluent. Different concentrations of drugs were added into media (DMEM, 10% dFBS) and incubated for 3 days. At the end of 3-day treatment, medium were removed and 50 μl of Passive lysis buffer (Promega) were added. Cell lysate was shaken at room temperature for 15 min. 30 μl/well of cell lysate was transferred to another 96-well plate, 100 μl/well of luciferase activity assay substrate was added into plate and read by a luminometer (Amersham) immediately.

| Compound | melting point | IC50 [1] | inhibition at 3 µM (HCV) | IC50 [2] | EC50 (CMV) |
| --- | --- | --- | --- | --- | --- |
| COc1ccc(-c2c3c(cc4ccc5c(c24)OCO5)C(=O)NC3)cc1OC [Compound 22, 10-(3,4-Dimethoxy-phenyl)-8,9-dihydro-1,3-dioxa-8-aza-dicyclopenta[a,g]naphthalen-7-one] | 258 °C (dec.) | 5 µM | 80% | 16 µM | – |
| O=C1OCc2c1cc1ccc3c(c1c2-c1ccc2c(c1)OCO2)OCO3 [Compound 2, 10-Benzo[1,3]dioxol-5-yl-9H-furo[3′,4′:6,7]naphtho[1,2-d][1,3]dioxol-7-one, reference compound] | – | 31 µM | 64% | 2.5 µM | 7.3 µM |
